pIC50: −log10 of the molar value.
Legend:
[1] = test system: human HTT T allele (SNP rs362331C/T) mRNA in GM09197 fibroblasts; experiment: HTT mRNA, allele-specific RT-PCR in GM09197 fibroblasts, T allele; assay type: cell-based; conditions: for pIC50: Homo sapiens, Fibroblast, 48 hr, T allele HTT mRNA normalized to GAPDH, relative to vehicle; for Gm09197 Emin 48 hr T Allele (%): lowest % HTT observed at 0.5 nM to 1000 nM compound
Procedure: (§1) Molecular Biology Toolkit: • qPCR primer probe sets: • RNA input normalization was assessed utilizing human glyceraldehyde 3-phosphate dehydrogenase (hGAPDH) TaqMan assay (ThermoFisher cat #4351370) or Human Cyclophillin ([…]) TaqMan assay (ThermoFisher cat #4351372) • Total HTT detection was assessed utilizing human Htt TaqMan assay (ThermoFisher cat #4331182) • Allele-specific detection of human HTT expression in HD cells containing the SNP rs362331C/T (Exon 50): for each assay, allele-specific probes to detect the SNP variant contained locked nucleic acid bases to improve allele discrimination, as compared to unmodified DNA probes. • 362331-F (331 forward primer) • 362331-R (331 reverse primer) • 362331-C probe: TCC CTC ATC+C+AC TGT GT • 362331-T probe: CTC+A+T+C+T+A+C TGT GT • qPCR was performed using Agpath ID one-step reverse transcriptase polymerase chain reaction (RT-PCR) reagent
(§2) Screening of HD molecules methods: GM09197 and/or GM04022 fibroblasts were cultured in T175 flasks incubated at 37° C. and 5% CO2. Once confluency was reached, the media was removed, the cells were washed with 1×PBS, and cells were dissociated using TrypLE™ Express Enzyme. Media was added to the enzyme and collected into a 15-mL conical tube and centrifuged at 500×g for 5 minutes to pellet the cells. Media and enzyme were aspirated using a serological pipette. Cells were resuspended in fresh media and counted using a Countess 3 Automated Cell Counter. Cells were plated at a density of 15,000 cells/well in a tissue culture-treated polystyrene 96-well dish and incubated at 37° C. and 5% CO2 overnight. The next day, media was removed using an 8-channel aspirator. 200 μL media/well are added back into the plate. The molecules are formulated to 1 mM and are dispensed using a Multidrop™ Pico 8 Digital Dispenser. After a 48-hour incubation with compounds, media was removed from plates, cells were washed with 1×PBS, and cells were lysed in 40 μL per well guanidinium thiocyanate buffer. RNA was isolated and purified in […] glass fiber column plates using chaotropic salts. Human mtHTT, wtHTT, and GAPDH mRNA were measured via RT-PCR using the ThermoFisher QuantStudio™ 7 Flex System in 384-well format. Results of HTT levels were normalized to GAPDH mRNA levels. Normalized HTT mRNA levels were expressed relative to vehicle-treated samples to assess fold change after molecule treatment.
(§3) Emin for each compound is the lowest % HTT concentration observed within a compound concentration of 0.5 nM to 1000 nM.

[2] = test system: human HTT C allele (SNP rs362331C/T) mRNA in GM09197 fibroblasts; experiment: HTT mRNA, allele-specific RT-PCR in GM09197 fibroblasts, C allele; assay type: cell-based; conditions: for GM 09197 E min 48 Hr C Allele (%): lowest % HTT observed at 0.5 nM to 1000 nM compound; for pIC50: Homo sapiens, Fibroblast, 48 hr, C allele HTT mRNA normalized to GAPDH, relative to vehicle
Procedure: as §1, §2, §3

Structure (SMILES)	pIC50 [1]	Gm09197 Emin 48 hr T Allele (%) [1]	GM 09197 E min 48 Hr C Allele (%) [2]	pIC50 [2]
CCS(=O)(=O)Nc1ccc(Oc2ccc(F)cc2F)c(-c2cn(C)c(=O)c3[nH]c(C(=O)Nc4ccc(OCCOCCOCCOCCOCCOCCOCCOCCOCCNC(=O)c5cc(NC(=O)c6nc(NC(=O)[C@H](N)CCNC(=O)c7cc(NC(=O)c8nc(NC(=O)CCNC(=O)c9cc(NC(=O)c%10nccn%10C)cn9C)cn8C)cn7C)cn6C)cn5C)cc4)cc23)c1 [Compound A-21]	< 6.00	A (A>90%)	A (A>90%)	< 6.00
CC(=O)Nc1c(F)cc(C(=O)NC2CCC(O)CC2)cc1O[C@@H](C)c1cccc(OCCOCCOCCOCCOCCOCCOCCOCCOCCOCCOCCOCCOCCOCCOCCOCCNC(=O)CCNC(=O)c2nc(NC(=O)c3cc(NC(=O)CCNC(=O)c4nc(NC(=O)CCCNC(=O)c5cc(NC(=O)c6nc(NC(=O)CCNC(=O)c7cc(NC(=O)c8nccn8C)cn7C)cn6C)cn5C)cn4C)cn3C)cn2C)c1 (stereo partly shown) [Compound A-31]	< 6.00	–	–	< 6.00
CC(=O)Nc1c(F)cc(C(=O)N[C@H]2CC[C@H](O)CC2)cc1O[C@@H](C)c1cccc(C(=O)NCCOCCOCCOCCOCCOCCOCCOCCOCCOCCOCCOCCOCCOCCOCCOCCNC(=O)CCNC(=O)c2nc(NC(=O)c3cc(NC(=O)CCNC(=O)c4nc(NC(=O)CCCNC(=O)c5cc(NC(=O)c6nc(NC(=O)CCNC(=O)c7cc(NC(=O)c8nccn8C)cn7C)cn6C)cn5C)cn4C)cn3C)cn2C)c1 [Compound A-32]	< 6.00	–	–	< 6.00
Cc1sc2c(c1C)C(c1ccc(Cl)cc1)=N[C@@H](CC(=O)Nc1ccc(OCCOCCOCCOCCOCCOCCOCCOCCOCCNC(=O)c3cc(NC(=O)c4nc(NC(=O)[C@H](N)CCNC(=O)c5cc(NC(=O)c6nc(NC(=O)CCNC(=O)c7cc(NC(=O)c8nccn8C)cn7C)cn6C)cn5C)cn4C)cn3C)cc1)c1nnc(C)n1-2 [Compound A-35]	< 6.00	–	A (A>90%)	< 6.00
CCS(=O)(=O)Nc1ccc(Oc2ccc(F)cc2F)c(-c2cn(C)c(=O)c3[nH]c(C(=O)Nc4ccc(OCCOCCOCCOCCOCCOCCOCCOCCOCCOCCOCCOCCOCCOCCOCCOCCNC(=O)c5cc(NC(=O)c6nc(NC(=O)[C@H](N)CCNC(=O)c7cc(NC(=O)c8nc(NC(=O)CCNC(=O)c9cc(NC(=O)c%10nccn%10C)cn9C)cn8C)cn7C)cn6C)cn5C)cc4)cc23)c1 [Compound A-36]	< 6.00	A (A>90%)	A (A>90%)	< 6.00
Cc1sc2c(c1C)C(c1ccc(Cl)cc1)=N[C@@H](CC(=O)Nc1ccc(OCCOCCOCCOCCOCCOCCOCCOCCOCCOCCOCCOCCOCCOCCOCCOCCNC(=O)c3cc(NC(=O)c4nc(NC(=O)c5cc(NC(=O)[C@@H](N)CCNC(=O)c6nc(NC(=O)CCNC(=O)c7cc(NC(=O)c8nccn8C)cn7C)cn6C)cn5C)cn4C)cn3C)cc1)c1nnc(C)n1-2 [Compound A-38]	< 6.00	A (A>90%)	A (A>90%)	< 6.00
CCS(=O)(=O)Nc1ccc(Oc2ccc(F)cc2F)c(-c2cn(C)c(=O)c3[nH]c(C(=O)Nc4ccc(OCCOCCOCCOCCOCCOCCOCCOCCOCCNC(=O)c5cc(NC(=O)c6nc(NC(=O)c7cc(NC(=O)[C@@H](N)CCNC(=O)c8nc(NC(=O)CCNC(=O)c9cc(NC(=O)c%10nccn%10C)cn9C)cn8C)cn7C)cn6C)cn5C)cc4)cc23)c1 [Compound A-39]	< 6.00	–	–	< 6.00
CCS(=O)(=O)Nc1ccc(Oc2ccc(F)cc2F)c(-c2cn(C)c(=O)c3[nH]c(C(=O)Nc4ccc(OCCOCCOCCOCCOCCOCCOCCOCCOCCOCCOCCOCCOCCOCCOCCOCCNC(=O)c5cc(NC(=O)c6nc(NC(=O)c7cc(NC(=O)[C@@H](N)CCNC(=O)c8nc(NC(=O)CCNC(=O)c9cc(NC(=O)c%10nccn%10C)cn9C)cn8C)cn7C)cn6C)cn5C)cc4)cc23)c1 [Compound A-40]	< 6.00	A (A>90%)	A (A>90%)	< 6.00
Cc1sc2c(c1C)C(c1ccc(Cl)cc1)=N[C@H](CC(=O)Nc1ccc(OCCOCCOCCOCCOCCOCCOCCOCCOCCOCCOCCOCCOCCOCCOCCOCCNC(=O)CCNC(=O)c3nc(NC(=O)c4cc(NC(=O)CCNC(=O)c5nc(NC(=O)CCCNC(=O)c6cc(NC(=O)c7nc(NC(=O)CCNC(=O)c8cc(NC(=O)c9nccn9C)cn8C)cn7C)cn6C)cn5C)cn4C)cn3C)cc1)c1nnc(C)n1-2 [Compound A-45]	< 6.00	C (C<80%)	C (C<80%)	< 6.00
Cn1cc(NC(=O)c2nc(NC(=O)CCNC(=O)c3cc(NC(=O)c4nccn4C)cn3C)cn2C)cc1C(=O)NCCCC(=O)Nc1cn(C)c(C(=O)NCCC(=O)Nc2cc(C(=O)Nc3cn(C)c(C(=O)NCCC(=O)NCCOCCOCCOCCOCCOCCOCCOCCOCCN4C[C@H](Nc5cnn(C)c(=O)c5Br)C[C@H](c5ccccc5)C4)n3)n(C)c2)n1 [Compound A-48]	< 6.00	A (A>90%)	A (A>90%)	< 6.00
Cn1cc(NC(=O)c2nc(NC(=O)CCNC(=O)c3cc(NC(=O)c4nccn4C)cn3C)cn2C)cc1C(=O)NCCCC(=O)Nc1cn(C)c(C(=O)NCCC(=O)Nc2cc(C(=O)Nc3cn(C)c(C(=O)NCCC(=O)NCCOCCOCCOCCOCCOCCOCCOCCOCCOCCOCCOCCOCCOCCOCCOCCN4C[C@H](Nc5cnn(C)c(=O)c5Br)C[C@H](c5ccccc5)C4)n3)n(C)c2)n1 [Compound A-49]	< 6.00	A (A>90%)	A (A>90%)	< 6.00
Cc1noc(C)c1-c1ccc2c(c1)nc(CCc1ccc(OCCOCCOCCOCCOCCOCCOCCOCCOCCNC(=O)CCNC(=O)c3nc(NC(=O)c4cc(NC(=O)CCNC(=O)c5nc(NC(=O)CCCNC(=O)c6cc(NC(=O)c7nc(NC(=O)CCNC(=O)c8cc(NC(=O)c9nccn9C)cn8C)cn7C)cn6C)cn5C)cn4C)cn3C)c(Cl)c1)n2C[C@H](C)N1CCOCC1 [Compound A-53]	< 6.00	–	A (A>90%)	< 6.00
Cc1noc(C)c1-c1ccc2c(c1)nc(CCc1ccc(OCCOCCOCCOCCOCCOCCOCCOCCOCCOCCOCCOCCOCCOCCOCCOCCNC(=O)CCNC(=O)c3nc(NC(=O)c4cc(NC(=O)CCNC(=O)c5nc(NC(=O)CCCNC(=O)c6cc(NC(=O)c7nc(NC(=O)CCNC(=O)c8cc(NC(=O)c9nccn9C)cn8C)cn7C)cn6C)cn5C)cn4C)cn3C)c(Cl)c1)n2C[C@H](C)N1CCOCC1 [Compound A-54]	< 6.00	–	–	< 6.00
CCNC(=O)c1cc2c(-c3cc(S(C)(=O)=O)ccc3Oc3ccc(OCCOCCOCCOCCOCCNC(=O)CCNC(=O)c4nc(NC(=O)c5cc(NC(=O)CCNC(=O)c6nc(NC(=O)CCCNC(=O)c7cc(NC(=O)c8nc(NC(=O)CCNC(=O)c9cc(NC(=O)c%10nccn%10C)cn9C)cn8C)cn7C)cn6C)cn5C)cn4C)cc3F)cn(C)c(=O)c2[nH]1 [Compound A-55]	< 6.00	A (A>90%)	A (A>90%)	< 6.00
CC(=O)N1c2ccc(-c3ccn(CCOCCOCCOCCOCCOCCOCCOCCOCCOCCOCCOCCOCCOCCOCCOCCNC(=O)CCNC(=O)c4nc(NC(=O)c5cc(NC(=O)CCNC(=O)c6nc(NC(=O)CCCNC(=O)c7cc(NC(=O)c8nc(NC(=O)CCNC(=O)c9cc(NC(=O)c%10nccn%10C)cn9C)cn8C)cn7C)cn6C)cn5C)cn4C)n3)cc2[C@H](Nc2ccc(C#N)cc2)C[C@@H]1C [Compound A-56]	6.98	C (C<80%)	C (C<80%)	< 6.00
CC(=O)N1c2ccc(-c3ccn(-c4ccc(OCCOCCOCCOCCOCCOCCOCCOCCOCCOCCOCCOCCOCCOCCOCCOCCNC(=O)CCNC(=O)c5nc(NC(=O)c6cc(NC(=O)CCNC(=O)c7nc(NC(=O)CCCNC(=O)c8cc(NC(=O)c9nc(NC(=O)CCNC(=O)c%10cc(NC(=O)c%11nccn%11C)cn%10C)cn9C)cn8C)cn7C)cn6C)cn5C)cc4)n3)cc2[C@H](Nc2ccc(C#N)cc2)C[C@@H]1C [Compound A-58]	< 6.00	–	–	< 6.00
